Data on 4 compounds can be found in patent US20140056898A1, “COMBINATION THERAPIES COMPRISING ANTI-ERBB3 AGENTS” (priority 2011, published 2014).

For series [1], the system named is BT474-M3 cells. Briefly: Spheroid in vitro tumor model assay, estrogen-stimulated. The following applies: estrogen-stimulated BT474-M3 spheroids, dose range, six days. In kind it is cell-based. An excerpt:
Cells are continued to culture for six days.
Multicellular spheroids are used to simulate the growth and microenvironmental conditions of tumors in vitro.

The test system of series [2] is BT474-M3 cells. Briefly: Spheroid in vitro tumor model assay, heregulin-stimulated. The series is classed as cell-based. The following applies: heregulin-stimulated BT474-M3 spheroids, dose range.
Procedure: (§3) BT474-M3 wild type cells (2000 cells/well) are plated in Ultra Low Cluster 96-well plate (Costar). After overnight incubation, indicated treatments are introduced to the plate. Cells are continued to culture for six days. Spheroids are then examined by Nikon microscope and analyzed by MetaMorph Image Analysis Software (Molecular Devices). The spheroid size from cells cultured in medium containing 10% FBS is set as control.
(§4) The percent of spheroid growth inhibition (normalized to untreated, stimulated control) was determined for 1 μM doses of inhibitor treatment.
In series [3] the test system is BT474-M3 cells. Briefly: Spheroid in vitro tumor model assay, dual ligand (estrogen and heregulin)-stimulated. The series is classed as cell-based. As to conditions: estrogen and heregulin (dual ligand)-stimulated BT474-M3 spheroids, dose range.
Procedure: as §3, §4
Series [4] deals with BT474-M3 breast cancer xenograft. Briefly: BT474-M3 breast cancer xenograft efficacy study, MM-111 and lapatinib. In kind it is in vivo, mice. The following applies: from day 40 to day 7; MM-111 weekly, lapatinib daily at optimal efficacious dose. How it is done: Tumor xenografts are established by subcutaneous injection of BT474-M3 cells into the flank of 5-6 weeks old female athymic nude mice (nu/nu; Charles River Labs, Wilmington, Mass.). Mice receive a subcutaneous 60 day, slow-release estrogen implant in the opposite flank (0.72 mg pellet; Innovation Research of America, Sarasota, Fla.) 24 hours prior to the injection of cells.
The percent change in tumor volume from day 40 to day 7 (inoculation) was calculated for each group (FIG. 6b).

Series [5] concerns ErbB3 phosphorylation (pErbB3). In words: Cell signaling assay, pErbB3 ELISA in heregulin-stimulated BT474-M3 cells. The series is classed as cell-based. Here is the method: (§1) Cell lysates are probed for phospho-ErbB3 (pErbB3), and phospho-AKT (pAKT) by ELISA as described previously (Schoeberl et al, 2009). Inhibitor IC50 values are calculated by fitting dose-response data to a 4-parameter sigmoidal curve (GraphPad Prism®, GraphPad Software, Inc., La Jolla, Calif.).
The amount of pErbB3 was measured by ELISA using the methods described above or minor variations thereof. Model-generated dose-response curves overlay the experimental data (FIG. 7a). […] Untreated and heregulin-stimulated cells were probed for pErbB3 and pAKT and the IC50 was calculated (FIG. 7b).
(§2) CRL-1504™), cells were incubated with serial dilutions of either inhibitor for 15 minutes, 1 hour, 4 hours, and 24 hours followed by stimulation with 5 nM heregulin for 10 min. Amounts of pAKT and pErbB3 were measured by ELISA essentially as described.

Series [6] concerns BT474-M3 cells. Briefly: Cell proliferation assay (CellTiter-Glo). In kind it is cell-based. The following applies: 24 hours. How it is done:
Cells (8,000/well) are seeded into 96-well plates and incubated overnight. Inhibitor is added at doses indicated and cells are treated for 24 hours. For experiments with ligand stimulation, cells are serum-starved overnight prior to addition of inhibitor and 2 nM heregulin 1-[…] (R&D Systems, Minneapolis, Minn.) is added 1 hour post-inhibitor treatment in media containing 5% FBS. Numbers of viable cells are measured as an indicator of cell proliferation using the CellTiter-Glo® Luminescent Cell Viability Assay (Promega, Madison, Wis.).

Series [7] concerns BT474-M3 cells. Briefly: Apoptosis assay (Annexin V / PI, FACS) in spheroids. In kind it is cell-based. As to conditions: MM-111 100 nM, lapatinib 33 nM; for Percent cell population: Early apoptosis: Annexin V positive, PI negative; for Percent cell population: Dead cells: PI positive, Annexin V negative. How it is done:
After overnight incubation, spheroids are treated with inhibitor at concentrations indicated for 72 hours. Spheroids are then trypsinized and combined with floating cells. Cells are washed twice with cold PBS and suspended in binding buffer (0.01 M HEPES, pH 7.4; 0.14 M NaCl; 2.5 mM CaCl2). Cells are then stained with FITC-conjugated Annexin V and PI. Apoptotic cells are quantified on a FACSCalibur™ FACS machine.
Cells were then stained with Annexin V and propidium iodide (PI) and quantitated using FACS (FIG. 11, Table 2). Cell populations staining positive with Annexin V and PI were quantified as late apoptotic, cell populations staining positive with Annexin V but not PI were quantified as early apoptotic, cell populations staining positive for PI but not Annexin V were quantified as dead cells and populations of cells not stained with either Annexin V or PI were considered alive and not apoptotic (Table 2).

Series [8] deals with BT474-M3-Aro cells. In words: Aromatase-overexpressing BT474-M3 cell proliferation assay (WST-1). In kind it is cell-based. As to conditions: androstenedione (200 nM) and heregulin (2 nM), three days; ratio 10:20:1 MM-111 to letrozole to lapatinib. How it is done: BT474-M3 cells were transfected with PS100010 vector containing human aromatase (gene accession No: NM_000103.2). Cells with stable expression of aromatase (BT474-M3-Aro) were obtained after selection with 400 μg/ml geneticin. For cell proliferation assay, BT474-M3-Aro cells (5000 cells/well) were plated in phenol red-free RPMI-1640 medium containing 5% charcoal-stripped FBS into 96-well plate. After overnight incubation, indicated treatments were introduced in the presence of androstenedione (A-4; 200 nM) and heregulin (HRG; 2 nM). […] Cell viability in the presence of 5% charcoal-stripped FBS was set as control (100%).
Androstenedione is a steroid hormone that is converted to estrogen by aromatase.

In series [9] the test system is ErbB3 phosphorylation (pErbB3). In words: Cell signaling assay, pErbB3 ELISA in heregulin-stimulated ZR75-30 cells. The series is classed as cell-based. The following applies: 5 nM heregulin for 10 min, read-out: IC50, reduction of pErbB3 levels. Here is the method: as §1, §2
Series [10] has as its system AKT phosphorylation (pAKT). In words: Cell signaling assay, pAKT ELISA in heregulin-stimulated BT474-M3 cells. In kind it is cell-based. As to conditions: 5 nM heregulin for 10 min, read-out: IC50, reduction of pAKT levels. Here is the method: as §1, §2
The subject of series [11] is AKT phosphorylation (pAKT). In words: Cell signaling assay, pAKT ELISA in heregulin-stimulated ZR75-30 cells. In kind it is cell-based. As to conditions: 5 nM heregulin for 10 min, read-out: IC50, reduction of pAKT levels. Here is the method: as §1, §2
The test system of series [12] is ErbB2 and ErbB3. In words: Affinity of MM-111 antigen-binding sites.

pIC50: −log10 of the molar value. “Also recorded” adds a separate entry of the source.

As for `C[C@]12CC[C@@H]3c4ccc(O)cc4C[C@@H](CCCCCCCCC[S+]([O-])CCCC(F)(F)C(F)(F)F)[C@H]3[C@@H]1CC[C@@H]2O` (some centres unmarked) [fulvestrant], the “inhibition of spheroid growth (in words)” value is given as “showed inhibitory effects on spheroid growth” in [1], “did not inhibit heregulin stimulated spheroid growth” in series [2] and “inhibited spheroid growth” in [3].
For the compound `CS(=O)(=O)CCNCc1ccc(-c2ccc3ncnc(Nc4ccc(OCc5cccc(F)c5)c(Cl)c4)c3c2)o1` [lapatinib, reference compound], the “percent change in tumor volume” value in [4] is listed as −11%. Moreover, in series [5] (BT474-M3 cells, 5 nM heregulin 10 min versus unstimulated, 1-hour incubation), the “inhibition of heregulin-activated signaling (pErbB3, pAKT; in words)” value is “not an effective inhibitor of heregulin-activated signaling”. In addition, in series [6] (BT474-M3 cells in serum plus 2 nM heregulin), the “inhibition of cell proliferation (viable cells)” value is listed as “about 23%”. The “inhibition of cell proliferation (viable cells)” value in series [6] (unstimulated BT474-M3 cells in serum) is around 50%. In series [7] (72 hours), the “Percent cell population: Live cells” value stood at 67.9%, the “Percent cell population: Early apoptosis” value is recorded as 16.8% and the “Percent cell population: Dead cells” value is reported as 0.73%. The total apoptotic cells result in [7] was “about 31%”. Also, the “inhibition of cell growth (in words)” value in series [8] was “did not result in growth inhibition except at high concentrations”.
Consider `N#Cc1ccc(C(c2ccc(C#N)cc2)n2cncn2)cc1` [letrozole], for which, in series [8], the “inhibition of cell growth (in words)” value was “did not result in significant inhibition of spheroid cell growth”.
On to “MM-111: bispecific anti-ErbB2/anti-ErbB3 antibody, scFv HSA conjugate, amino acid sequence SEQ ID NO:1”, for which the results for the “inhibition of spheroid growth (in words)” value in series [1], in [2] and in series [3] were “showed inhibitory effects on spheroid growth”, “inhibited heregulin-induced spheroid growth” and “inhibited spheroid growth; also recorded: greater inhibitory effects than trastuzumab”, respectively. The “percent change in tumor volume” value in [4] was 14%. The negative logarithm of the IC50 (pIC50) in series [5] (BT474-M3 cells, 5 nM heregulin for 10 min, read-out: IC50, reduction of pErbB3 levels) was 8.52; in [9] it was 8.30; in series [10] it was 8.00; in [11], 8.40. Further, in series [5] (incubation 15 minutes up to 24 hours), the “ability to inhibit heregulin-induced ErbB3 activation relative to lapatinib” value is “superior to lapatinib by greater than an order of magnitude”. In [7] (72 hours), the “Percent cell population: Live cells” value is listed as 78.9%. Moreover, the “Percent cell population: Late apoptosis” value in series [7] (72 hours, Annexin V and PI positive) is given as 7.5%. Also, the “Percent cell population: Early apoptosis” value in series [7] (72 hours) turned out to be 12.9%. The “Percent cell population: Dead cells” value in series [7] (72 hours) was 0.74%. The total apoptotic cells entry in [7] is “about 20%”. In [8], the “inhibition of cell growth (in words)” value was “inhibited cell proliferation to a similar extent”. Further, in [12], the “affinity of ErbB2 antigen-binding site relative to ErbB3 antigen-binding site” value was “about 30 times”.
